# Laboratory results: PubChem BioAssay (NCI)
#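 Cells were grown in 96-well plates and exposed to each compound for 48 hours at five concentrations; endpoints were interpolated linearly between bracketing concentrations, or set to the highest concentration if not reached. GI50 = concentration required for 50% inhibition of growth. TGI is the concentration that stops growth completely.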
# How the values were obtained:
# Assay in all cases: NCI tumour cell line growth inhibition, 48 h
# K-562 leukemia = system: K-562 leukemia
# LOX IMVI melanoma = system: LOX IMVI melanoma
# MOLT-4 leukemia = system: MOLT-4 leukemia
# MDA-MB-231 breast = system: MDA-MB-231 breast
# MALME-3M melanoma = system: MALME-3M melanoma
# HS 578T breast = system: HS 578T breast
# RPMI-8226 leukemia = system: RPMI-8226 leukemia
# COLO 205 colon = system: COLO 205 colon
# OVCAR-4 ovarian = system: OVCAR-4 ovarian
# 786-0 renal = system: 786-0 renal
# U251 CNS = system: U251 CNS
# SK-MEL-5 melanoma = system: SK-MEL-5 melanoma
# SK-OV-3 ovarian = system: SK-OV-3 ovarian
# HL-60(TB) leukemia = system: HL-60(TB) leukemia
# SK-MEL-2 melanoma = system: SK-MEL-2 melanoma
# UACC-257 melanoma = system: UACC-257 melanoma
# A498 renal = system: A498 renal
# M14 melanoma = system: M14 melanoma
# RXF 393 renal = system: RXF 393 renal
# SR leukemia = system: SR leukemia
# NCI-H460 lung = system: NCI-H460 lung
# SF-268 CNS = system: SF-268 CNS
# HOP-62 NSCLC = system: HOP-62 NSCLC
# SK-MEL-28 melanoma = system: SK-MEL-28 melanoma
# CCRF-CEM leukemia = system: CCRF-CEM leukemia
# UO-31 renal = system: UO-31 renal
# NCI-H23 lung = system: NCI-H23 lung
# HCT-116 colon = system: HCT-116 colon
# SF-295 CNS = system: SF-295 CNS
# OVCAR-5 ovarian = system: OVCAR-5 ovarian
# OVCAR-8 ovarian = system: OVCAR-8 ovarian
# BT-549 breast = system: BT-549 breast
# SW-620 colon = system: SW-620 colon
# SF-539 CNS = system: SF-539 CNS
# SNB-19 CNS = system: SNB-19 CNS
# OVCAR-3 ovarian = system: OVCAR-3 ovarian
# DU-145 prostate = system: DU-145 prostate
# IGROV1 ovarian = system: IGROV1 ovarian
# HT29 colon = system: HT29 colon
# A549 NSCLC = system: A549 NSCLC
# SN12C renal = system: SN12C renal
# HCT-15 colon = system: HCT-15 colon
# TK-10 renal = system: TK-10 renal
# UACC-62 melanoma = system: UACC-62 melanoma
# NCI-H522 lung = system: NCI-H522 lung
# HCC-2998 colon = system: HCC-2998 colon
# PC-3 prostate = system: PC-3 prostate
# CAKI-1 renal = system: CAKI-1 renal
# MDA-MB-435 = system: MDA-MB-435
# ACHN renal = system: ACHN renal
# KM12 colon = system: KM12 colon
# NCI/ADR-RES ovarian = system: NCI/ADR-RES ovarian
# SNB-75 CNS = system: SNB-75 CNS
# EKVX NSCLC = system: EKVX NSCLC
# HOP-92 NSCLC = system: HOP-92 NSCLC
smiles,measurement,setting,value
Fc1c[c-]c(-c2ccccn2)c(F)c1.Fc1c[c-]c(-c2ccccn2)c(F)c1.[Cl][Pt+].[Cl][Pt+].c1ccc([PH+](C[PH+](c2ccccc2)c2ccccc2)c2ccccc2)cc1,GI50,K-562 leukemia,95.5 nM
same,TGI,K-562 leukemia,> 100000 nM
same,GI50,LOX IMVI melanoma,380 nM
same,TGI,LOX IMVI melanoma,1380 nM
same,GI50,MOLT-4 leukemia,328 nM
same,GI50,MDA-MB-231 breast,139 nM
same,TGI,MDA-MB-231 breast,373 nM
same,GI50,MALME-3M melanoma,264 nM
same,TGI,MALME-3M melanoma,758 nM
same,GI50,HS 578T breast,275 nM
same,TGI,HS 578T breast,1170 nM
same,GI50,RPMI-8226 leukemia,80 nM
same,TGI,RPMI-8226 leukemia,466 nM
same,GI50,COLO 205 colon,132 nM
same,TGI,COLO 205 colon,362 nM
same,GI50,OVCAR-4 ovarian,154 nM
same,TGI,OVCAR-4 ovarian,977 nM
same,GI50,786-0 renal,184 nM
same,TGI,786-0 renal,380 nM
same,GI50,U251 CNS,63 nM
same,TGI,U251 CNS,218 nM
same,GI50,SK-MEL-5 melanoma,164 nM
same,TGI,SK-MEL-5 melanoma,307 nM
same,GI50,SK-OV-3 ovarian,330 nM
same,TGI,SK-OV-3 ovarian,910 nM
same,GI50,HL-60(TB) leukemia,271 nM
same,TGI,HL-60(TB) leukemia,813 nM
same,GI50,SK-MEL-2 melanoma,193 nM
same,TGI,SK-MEL-2 melanoma,479 nM
same,GI50,UACC-257 melanoma,235 nM
same,TGI,UACC-257 melanoma,815 nM
same,GI50,A498 renal,164 nM
same,TGI,A498 renal,461 nM
O=C(OCc1ccc2cccc(O)c2n1)N1CCN(C(=O)c2cc3cc(F)ccc3[nH]2)CC1,GI50,M14 melanoma,1130 nM
same,TGI,M14 melanoma,2500 nM
same,GI50,RXF 393 renal,981 nM
same,TGI,RXF 393 renal,2170 nM
same,GI50,SR leukemia,272 nM
same,TGI,SR leukemia,1600 nM
same,GI50,K-562 leukemia,435 nM
same,TGI,K-562 leukemia,2400 nM
same,GI50,NCI-H460 lung,1340 nM
same,TGI,NCI-H460 lung,3640 nM
same,GI50,LOX IMVI melanoma,1360 nM
same,TGI,LOX IMVI melanoma,2750 nM
same,GI50,MOLT-4 leukemia,334 nM
same,TGI,MOLT-4 leukemia,1370 nM
same,GI50,SF-268 CNS,1450 nM
same,TGI,SF-268 CNS,3040 nM
same,GI50,HOP-62 NSCLC,1370 nM
same,TGI,HOP-62 NSCLC,3160 nM
same,GI50,MDA-MB-231 breast,966 nM
same,TGI,MDA-MB-231 breast,2230 nM
same,GI50,SK-MEL-28 melanoma,1680 nM
same,TGI,SK-MEL-28 melanoma,3050 nM
same,GI50,MALME-3M melanoma,1460 nM
same,TGI,MALME-3M melanoma,2780 nM
same,GI50,CCRF-CEM leukemia,242 nM
same,TGI,CCRF-CEM leukemia,995 nM
same,GI50,HS 578T breast,1420 nM
same,TGI,HS 578T breast,5720 nM
same,GI50,UO-31 renal,358 nM
same,TGI,UO-31 renal,1930 nM
same,GI50,NCI-H23 lung,1620 nM
same,TGI,NCI-H23 lung,3450 nM
same,GI50,HCT-116 colon,357 nM
same,TGI,HCT-116 colon,1320 nM
same,GI50,SF-295 CNS,5690 nM
same,TGI,SF-295 CNS,18600 nM
same,GI50,RPMI-8226 leukemia,251 nM
same,TGI,RPMI-8226 leukemia,787 nM
same,GI50,COLO 205 colon,622 nM
same,TGI,COLO 205 colon,2070 nM
same,GI50,OVCAR-5 ovarian,1700 nM
same,TGI,OVCAR-5 ovarian,3160 nM
same,GI50,OVCAR-8 ovarian,1010 nM
same,TGI,OVCAR-8 ovarian,2470 nM
same,GI50,BT-549 breast,1000 nM
same,TGI,BT-549 breast,2210 nM
same,GI50,OVCAR-4 ovarian,1350 nM
same,TGI,OVCAR-4 ovarian,2740 nM
same,GI50,786-0 renal,1420 nM
same,TGI,786-0 renal,2820 nM
same,GI50,U251 CNS,1410 nM
same,TGI,U251 CNS,2740 nM
same,GI50,SK-MEL-5 melanoma,1690 nM
same,TGI,SK-MEL-5 melanoma,3070 nM
same,GI50,SW-620 colon,420 nM
same,TGI,SW-620 colon,1910 nM
same,GI50,SF-539 CNS,1150 nM
same,TGI,SF-539 CNS,2360 nM
same,GI50,SNB-19 CNS,1550 nM
same,TGI,SNB-19 CNS,2920 nM
same,GI50,OVCAR-3 ovarian,460 nM
same,TGI,OVCAR-3 ovarian,1770 nM
same,GI50,DU-145 prostate,1280 nM
same,TGI,DU-145 prostate,2670 nM
same,GI50,IGROV1 ovarian,403 nM
same,TGI,IGROV1 ovarian,1640 nM
same,GI50,SK-OV-3 ovarian,2770 nM
same,TGI,SK-OV-3 ovarian,11900 nM
same,GI50,HT29 colon,1140 nM
same,TGI,HT29 colon,3050 nM
same,GI50,A549 NSCLC,1620 nM
same,TGI,A549 NSCLC,3350 nM
same,GI50,HL-60(TB) leukemia,1310 nM
same,TGI,HL-60(TB) leukemia,3470 nM
same,GI50,SK-MEL-2 melanoma,1350 nM
same,TGI,SK-MEL-2 melanoma,2780 nM
same,GI50,SN12C renal,1210 nM
same,TGI,SN12C renal,2490 nM
same,GI50,HCT-15 colon,452 nM
same,TGI,HCT-15 colon,1800 nM
same,GI50,TK-10 renal,1770 nM
same,TGI,TK-10 renal,3160 nM
same,GI50,UACC-62 melanoma,1170 nM
same,TGI,UACC-62 melanoma,2430 nM
same,GI50,NCI-H522 lung,1020 nM
same,TGI,NCI-H522 lung,2470 nM
same,GI50,HCC-2998 colon,1690 nM
same,TGI,HCC-2998 colon,3260 nM
same,GI50,PC-3 prostate,513 nM
same,TGI,PC-3 prostate,2020 nM
same,GI50,CAKI-1 renal,354 nM
same,TGI,CAKI-1 renal,1660 nM
same,GI50,UACC-257 melanoma,1460 nM
same,TGI,UACC-257 melanoma,2890 nM
same,GI50,MDA-MB-435,1190 nM
same,TGI,MDA-MB-435,2800 nM
same,GI50,ACHN renal,615 nM
same,TGI,ACHN renal,1920 nM
same,GI50,A498 renal,1710 nM
same,TGI,A498 renal,3250 nM
same,GI50,KM12 colon,1610 nM
same,TGI,KM12 colon,3460 nM
same,GI50,NCI/ADR-RES ovarian,1760 nM
same,TGI,NCI/ADR-RES ovarian,6070 nM
same,GI50,SNB-75 CNS,1020 nM
same,TGI,SNB-75 CNS,2240 nM
same,GI50,EKVX NSCLC,1400 nM
same,TGI,EKVX NSCLC,2710 nM
same,GI50,HOP-92 NSCLC,383 nM
same,TGI,HOP-92 NSCLC,1940 nM
